The values below come from article PMC7582373, “Bis-Lactam Peptide [i, i+4]-Stapling with α-Methylated Thialysines” (Molecules, 2020).

One data set is described as follows: circular dichroism. The note with it: water; pH ns; 25 °C; 25 and/or 50 uM. For orientation: Circular dichroism is the unequal absorption of left and right circularly polarised light.
A further data set in a line: in vitro. Format: in vitro ADME. Particulars: Streptomyces griseus, isolated enzyme pronase, pH 7.3. From the text: We further compared the proteolytic stability of the L-α-methyl-thialysine-stapled peptide 5 and the L-thialysine-stapled peptide 6 by employing pronase as the proteolytic enzyme preparation in a proteolysis experiment. Of note, pronase is a mixture of a variety of different proteases/peptidases and therefore has a very broad substrate specificity. […] This observed difference in the proteolytic stability of 5 and 6 is in the same direction of change with the % α-helicity of 5 and 6 (see above), which would be consistent with the notion that an enhanced % α-helicity would improve the proteolytic stability of a stapled peptide, which was also supported previously with the peptides stapled with other stapling systems such as the all-hydrocarbon-stapled peptides.
The following materials were obtained from commercial sources for compound synthesis/purification and the pronase digestion assay, and were used as received. Sigma-Aldrich China (Shanghai, China): N-methylmorpholine (NMM), trifluoroacetic acid (TFA), N,N-dimethylformamide (DMF), N-(allyloxycarbonyloxy)succinimide (Alloc-OSu), triethylamine, Trizma, the pronase from Streptomyces griseus; TCI Shanghai: para-phenylenediacetic acid, 2-(tert-butoxycarbonylamino)ethyl bromide, 1,8-diazabicyclo[5.4.0]undec-7-ene (DBU), L-cysteine, N-(9-fluorenylmethoxycarbonyloxy) succinimide (Fmoc-OSu), phenylsilane (PhSiH3), tetrakis(triphenylphosphine)palladium (Pd(PPh3)4); Alfa Aesar China (Shanghai, China): 2-(1H-benzotriazole-1-yl)-1,1,3,3-tetramethylaminium hexafluorophosphate (HBTU), 2-(7-Aza-1H-benzotriazole-1-yl)-1,1,3,3-tetramethyluronium hexafluorophosphate (HATU), N-hydroxybenzotriazole (HOBt), phenol, thioanisole, ethanedithiol; Honeywell China (Shanghai, China): acetonitrile, dichloromethane (DCM), methanol, ethyl acetate; Sinopharm Chemical Reagent Co., Ltd. (Shanghai, China): acetic anhydride, diethyl ether, semi-preparative thin-layer chromatography (TLC) silica gel plate (HSGF254, 20 × 20 cm, 0.4–0.5 mm); Shanghai Plus Bio-Sci & Tech Co., Ltd. (Shanghai, China): Rink amide 4-methylbenzhydrylamine (MBHA) resin; SyncoZymes Co., Ltd. (Shanghai, China): D-2-methyl-cysteine hydrochloride; Fisher Scientific Worldwide Co., Ltd. (Shanghai, China): L-2-methyl-cysteine hydrochloride.
This experiment followed the protocol described previously. Fifty (50) µL of an 160 μM solution of a peptide (5, 6, 7, or 8) in ddH2O was thoroughly mixed with 50 μL of an 8 ng/μL solution of pronase in 100 mM Tris•HCl (pH 7.3), and the resultant solution was incubated at 37 °C until quenched at different time points (0 min, 4 min, 7.5 min, and 15 min) with an 1.0 M solution of acetic acid in ddH2O. Twenty (20) μL of a pronase digestion solution was taken at each time point and treated immediately with 40 μL of the 1.0 M acetic acid aqueous solution, followed instantly by vigorous vortexing and centrifugation. The obtained supernatant was then injected into a C18 analytical HPLC column (0.46 × 25 cm, 5 μm), and the column was eluted at 1 mL/min with ultraviolet monitoring at 214 nm with the following gradients of ddH2O containing 0.05% (v/v) TFA (mobile phase A) and acetonitrile containing 0.05% (v/v) TFA (mobile phase B): linear increase of B from 0% to 45% in 60 min (for 5 and 6), linear increase of B from 0% to 60% in 60 min (for 7), or linear increase of B from 0% to 100% in 60 min (for 8). The integrated HPLC peak areas at different time points for a given peptide were used to estimate the percentage remaining for the peptide as the function of the digestion time.

*1 amine or outer side, *2 acyl side, *3 side chain or, on linkers, in order; H or OH if unused. Where a SMILES comes first, the peptide text is derived from it. Bridges are numbered along the chain shown (N, C = ends). [ ]: non-standard residue; d: D form. X1 = O=C(Cc1ccc(CC(=O)NCC[*:2])cc1)NCC[*:1]; αMeC = C[C@](N)(CS)C(=O)O

In the case of `CC(=O)N[C@@H](CCC(=O)O)C(=O)N[C@@H](Cc1c[nH]c2ccccc12)C(=O)N[C@@H](C)C(=O)N[C@@H](CCC(=O)O)C(=O)N[C@H](C(=O)N[C@@H](C)C(=O)N[C@@H](C)C(=O)N[C@H]1CSCCNC(=O)Cc2ccc(cc2)CC(=O)NCCSC[C@@H](C(=O)N[C@@H](C)C(=O)N[C@@H](Cc2c[nH]cn2)C(=O)N[C@@H](C)C(N)=O)NC(=O)[C@H](CC(C)C)NC(=O)[C@H](Cc2ccccc2)NC(=O)[C@H](CCCCN)NC1=O)[C@@H](C)O` [compound 8] (Ac-EWAETAACKFLCAHA-NH2; linker 8-12 via X1), the helicity in the data set “circular dichroism” was determined as 7.9%. In the data set “in vitro”, this molecule came in with an amount remaining at 4 min, 80 µM of roughly 48.9%; an amount remaining at 0.125 h, 80 µM of roughly 35.7%; an amount remaining at 0.25 h, 80 µM of roughly 21.6%.
Consider `CC(=O)N[C@@H](CCC(=O)O)C(=O)N[C@@H](Cc1c[nH]c2ccccc12)C(=O)N[C@@H](C)C(=O)N[C@@H](CCC(=O)O)C(=O)N[C@H](C(=O)N[C@@H](C)C(=O)N[C@@H](C)C(=O)N[C@@]1(C)CSCCNC(=O)Cc2ccc(cc2)CC(=O)NCCSC[C@@](C)(C(=O)N[C@@H](C)C(=O)N[C@@H](Cc2c[nH]cn2)C(=O)N[C@@H](C)C(N)=O)NC(=O)[C@H](CC(C)C)NC(=O)[C@H](Cc2ccccc2)NC(=O)[C@H](CCCCN)NC1=O)[C@@H](C)O` [compound 7] (Ac-EWAETAA[αMeC]KFL[αMeC]AHA-NH2; linker 8-12 via X1), for which the helicity in “circular dichroism” was determined as 13.5%. In “in vitro”, this molecule registered a fraction remaining at 4 min, 80 µM of roughly 96.6%; an amount remaining at 0.125 h, 80 µM of roughly 93.3%; an amount remaining at 0.25 h, 80 µM of roughly 81.3%.
As to `CC[C@H](C)[C@H](NC(=O)[C@H](CCC(=O)O)NC(=O)[C@H](CO)NC(C)=O)C(=O)N[C@H](C(=O)N[C@@H](CCCCN)C(=O)N[C@@H](CCC(N)=O)C(=O)N[C@@H](CCC(=O)O)C(=O)N[C@@H](CCCCN)C(=O)N[C@@]1(C)CSCCNC(=O)Cc2ccc(cc2)CC(=O)NCCSC[C@](C)(C(=O)N[C@@H](Cc2c[nH]cn2)C(=O)N[C@@H](CCCNC(=N)N)C(=O)N[C@@H](Cc2c[nH]cn2)C(=O)N[C@@H](Cc2ccc(O)cc2)C(=O)N[C@@H](CS)C(N)=O)NC(=O)[C@H](Cc2c[nH]c3ccccc23)NC(=O)[C@H](CC(C)C)NC(=O)[C@H](Cc2ccccc2)NC1=O)[C@@H](C)O`, in the data set “circular dichroism”, the helicity is 11.8%.
`CC[C@H](C)[C@H](NC(=O)[C@H](CCC(=O)O)NC(=O)[C@H](CO)NC(C)=O)C(=O)N[C@H](C(=O)N[C@@H](CCCCN)C(=O)N[C@@H](CCC(N)=O)C(=O)N[C@@H](CCC(=O)O)C(=O)N[C@@H](CCCCN)C(=O)N[C@H]1CSCCNC(=O)Cc2ccc(cc2)CC(=O)NCCSC[C@@H](C(=O)N[C@@H](Cc2c[nH]cn2)C(=O)N[C@@H](CCCNC(=N)N)C(=O)N[C@@H](Cc2c[nH]cn2)C(=O)N[C@@H](Cc2ccc(O)cc2)C(=O)N[C@@H](CS)C(N)=O)NC(=O)[C@H](Cc2c[nH]c3ccccc23)NC(=O)[C@H](CC(C)C)NC(=O)[C@H](Cc2ccccc2)NC1=O)[C@@H](C)O` [compound 6] (Ac-SEITKQEKCFLWCHRHYC-NH2; linker 9-13 via X1) gave a helicity in “circular dichroism” of 4.4%. In “in vitro”, this molecule came in with an amount remaining at 4 min, 80 µM of roughly 11.1% and an amount remaining at 0.125 h, 80 µM of roughly 4.3%.
For `CC[C@H](C)[C@H](NC(=O)[C@H](CCC(=O)O)NC(=O)[C@H](CO)NC(C)=O)C(=O)N[C@H](C(=O)N[C@@H](CCCCN)C(=O)N[C@@H](CCC(N)=O)C(=O)N[C@@H](CCC(=O)O)C(=O)N[C@@H](CCCCN)C(=O)N[C@]1(C)CSCCNC(=O)Cc2ccc(cc2)CC(=O)NCCSC[C@@](C)(C(=O)N[C@@H](Cc2c[nH]cn2)C(=O)N[C@@H](CCCNC(=N)N)C(=O)N[C@@H](Cc2c[nH]cn2)C(=O)N[C@@H](Cc2ccc(O)cc2)C(=O)N[C@@H](CS)C(N)=O)NC(=O)[C@H](Cc2c[nH]c3ccccc23)NC(=O)[C@H](CC(C)C)NC(=O)[C@H](Cc2ccccc2)NC1=O)[C@@H](C)O`, in “circular dichroism”, the helicity worked out at 11.1%.
Molecule `CC[C@H](C)[C@H](NC(=O)[C@H](CCC(=O)O)NC(=O)[C@H](CO)NC(C)=O)C(=O)N[C@H](C(=O)N[C@@H](CCCCN)C(=O)N[C@@H](CCC(N)=O)C(=O)N[C@@H](CCC(=O)O)C(=O)N[C@@H](CCCCN)C(=O)N[C@]1(C)CSCCNC(=O)Cc2ccc(cc2)CC(=O)NCCSC[C@](C)(C(=O)N[C@@H](Cc2c[nH]cn2)C(=O)N[C@@H](CCCNC(=N)N)C(=O)N[C@@H](Cc2c[nH]cn2)C(=O)N[C@@H](Cc2ccc(O)cc2)C(=O)N[C@@H](CS)C(N)=O)NC(=O)[C@H](Cc2c[nH]c3ccccc23)NC(=O)[C@H](CC(C)C)NC(=O)[C@H](Cc2ccccc2)NC1=O)[C@@H](C)O` came in with a helicity in “circular dichroism” of 10.4%.
Take `CC[C@H](C)[C@H](NC(=O)[C@H](CCC(=O)O)NC(=O)[C@H](CO)NC(C)=O)C(=O)N[C@H](C(=O)N[C@@H](CCCCN)C(=O)N[C@@H](CCC(N)=O)C(=O)N[C@@H](CCC(=O)O)C(=O)N[C@@H](CCCCN)C(=O)N[C@@]1(C)CSCCNC(=O)Cc2ccc(cc2)CC(=O)NCCSC[C@@](C)(C(=O)N[C@@H](Cc2c[nH]cn2)C(=O)N[C@@H](CCCNC(=N)N)C(=O)N[C@@H](Cc2c[nH]cn2)C(=O)N[C@@H](Cc2ccc(O)cc2)C(=O)N[C@@H](CS)C(N)=O)NC(=O)[C@H](Cc2c[nH]c3ccccc23)NC(=O)[C@H](CC(C)C)NC(=O)[C@H](Cc2ccccc2)NC1=O)[C@@H](C)O` [compound 5]: the helicity in “circular dichroism” was 10.4%. In the data set “in vitro”, this molecule gave a share remaining at 4 min, 80 µM of roughly 19.2% and an amount remaining at 0.125 h, 80 µM of roughly 5.6%.

Broadly, the share remaining is the share of the starting amount still present when the sample was taken.
